This is an account of results in US10882830B2, “Crystal form of ozanimod hydrochloride and processes for preparation therefor” (Receptos LLC, priority 2016, dated 2021).

As a reminder, the solubility is how much of the substance goes into solution per volume. Low readings indicate a poorly soluble substance, high ones a readily soluble substance.

What all share (format): physicochemical
A short description of data set [1]: Hygroscopicity assessment by dynamic vapor sorption (DVS). To be noted: 25° C.; for Weight Gain under 80% RH: DVS, about 10 mg of sample. On the procedure: Dynamic Vapor Sorption (DVS) is measured via an SMS (Surface Measurement Systems Ltd.) intrinsic DVS. Typical Parameters for DVS test are as follows:
Gas and flow rate: N2, 200 mL/min
RH range: 0% RH to 95% RH
Dynamic vapor sorption (DVS) was applied to test hygroscopicity of Form CS3 with about 10 mg of sample. The DVS plot is substantially as depicted in FIG. 5.
Description and definition of hygroscopicity (Chinese Pharmacopoeia 2015 edition appendix Drug hygroscopic test guidelines, test at 25° C.+/−1° C., 80% RH). • deliquescent: Sufficient water is absorbed to form a liquid; • very hygroscopic: Increase in mass is equal to or greater than 15%; • hygroscopic: Increase in mass is less than 15% and equal to or greater than 2%; • slightly hygroscopic: Increase in mass is less than 2% and equal to or greater than 0.2%. • no or almost no hygroscopic: Increase in mass is less than 0.2%.

Data set [2] is described as follows: Solubility assessment: saturated solutions in SGF, FeSSIF and water, concentration by HPLC. To be noted: thermodynamic from solid. The protocol:
Form CS3 of ozanimod hydrochloride was suspended into SGF (Simulated gastric fluids, pH=1.8), FeSSIF (Fed state simulated intestinal fluids, pH=5.0) and water to obtain saturated solutions. After being equilibrated for 1 h, 4 h and 24 h, concentrations of the saturated solutions were measured by HPLC.

Data set [3] is described as follows: Particle size distribution test (Microtrac S3500 laser particle size analyzer, wet process). On the procedure:
The particle size distribution test in the present disclosure is acquired by the S3500 laser particle size analyzer of Microtrac. Microtrac S3500 is equipped with the SDC (Sample Delivery Controller). The test is carried out by wet process, and the dispersion medium is Isopar G The parameters are as follow:
Sample of Form CS3 was taken for particle size distribution test.

The nature of data set [4]: Stability assessment in constant temperature and humidity chambers, crystalline form tested by XRPD. To be noted: 2 weeks. On the procedure:
Two samples of Form CS3 of ozanimod hydrochloride were placed in constant temperature and humidity chambers at 25° C./60% RH and 40° C./75% RH for 2 weeks. XRPD was used to test the crystalline form. The XRPD overlay pattern is substantially as depicted in FIG. 8 (from top to bottom: XRPD pattern of Form CS3 before and after being stored under 25° C./60% RH and 40° C./75% RH for 2 weeks). […] It can be seen that Form CS3 of ozanimod hydrochloride has good stability, which is benefit for drug storage.

The structures appear in SMILES notation. Where a name gives a salt, the structure may show the parent alone.

Regarding `CC(C)Oc1ccc(-c2nc(-c3cccc4c3CC[C@@H]4NCCO)no2)cc1C#N` [Form CS3 of ozanimod hydrochloride, ozanimod hydrochloride], the “Hygroscopicity class according to the definition of hygroscopicity” value in data set [1] (Chinese Pharmacopoeia 2015 definition, 80% RH) is given as “hygroscopic”. The “Weight Gain under 80% RH” value in data set [1] (hydrochloride) came out at 2.50%; in data set [1] (listed as Form CS3, hydrochloride) it was 2.50%. The solubility at 1 h in data set [2] (fed state simulated intestinal fluid (FeSSIF), FeSSIF pH=5.0, 1 h) was 2100 µg/mL; in data set [2] (simulated gastric fluid (SGF), simulated gastric fluid, SGF pH=1.8, 1 h) it was 200 µg/mL; in data set [2] (water, H2O, 1 h), 1100 µg/mL. The solubility at 4 h in data set [2] (fed state simulated intestinal fluid (FeSSIF), FeSSIF pH=5.0, 4 h) was 2100 µg/mL; in data set [2] (simulated gastric fluid (SGF), simulated gastric fluid, SGF pH=1.8, 4 h), 200 µg/mL; in data set [2] (water, H2O, 4 h), 1400 µg/mL. Moreover, the solubility at 24 h was 1800 µg/mL in data set [2] (fed state simulated intestinal fluid (FeSSIF), FeSSIF pH=5.0, 24 h); 200 µg/mL in data set [2] (simulated gastric fluid (SGF), simulated gastric fluid, SGF pH=1.8, 24 h); 1300 µg/mL in data set [2] (water, H2O, 24 h). For the same compound, the “MV (average particle size calculated by volume)” value in data set [3] (dispersion medium Isopar G, average of 3 runs) is on record as 131.8 μm. Moreover, the average particle size in data set [3] (unit not given) came out at 131.8. The same compound had a D10 in data set [3] (volume distribution, Isopar G) of 19.94 μm. In data set [3] (volume distribution, Isopar G), the D50 is reported as 100.5 μm. The compound further came in with a D90 in data set [3] (volume distribution, Isopar G) of 287.0 μm. For the same compound, the “Crystalline form change by XRPD after storage” value in data set [4] (25° C./60% RH) and in data set [4] (40° C./75% RH) was “No form change” throughout.
